According to US20140161769A1, “METHODS FOR TREATING INFLAMMATORY AUTOIMMUNE DISORDERS” (Beth Israel Deaconess Medical Center, Inc., priority 2010, published 2014):

What was measured:
MRL/lpr mice = experiment: Treatment of MRL/lpr mice with KN-93 (lupus nephritis; urine and kidney histopathology); assay type: in vivo, mouse
Procedure: FIG. 7A is a graph showing the weekly quantification of urinary protein and leukocytes of pre-disease 8-week-old MRL/lpr mice treated with either KN-93 (40 mg/kg) or PBS. The agent was administered by intraperitoneal injections three times a week, every other week, during an 8-week time period. The arrows indicate the administration of the treatment. FIG. 7B is a graph showing the weekly quantification of urinary protein and leukocytes of diseased 12-week-old MRL/lpr mice (n≧5 mice per group) treated with KN-93 or PBS. Treatment was administered three times a week during a 5-week time period. FIG. 7C is a series of representative images of glomerular, tubule-interstitial, and perivascular areas from 16-week-old MRL/lpr mice treated with PBS (upper panels) and KN-93 (stained with Periodic Acid Schiff). The photographs from the middle panels correspond to mice treated before the onset of proteinuria (8 week-old). The lower panels correspond to mice treated after the disease had been established. The magnification is ×40 (glomerular), ×10 (tubular), and ×20 (perivascular).
We recorded proteinuria and pyuria in CaMKIV-deficient and sufficient MRL/lpr mice from the 6th to the 24th week of age. The mice in each group were placed overnight in a Nalgene metabolic cage to collect urine. Urine was measured with Multistix 10SG reagent strips and analyzed by a Clinitek Status analyzer (Bayer Healthcare). Proteinuria increased to 3 g/L in MRL/lpr mice at the age of 14 weeks and remained at the same level thereafter. However, in MRL/lprCaMKIV−/− mice, proteinuria remained at 1 g/L throughout the observation period. The number of leukocytes in the urine increased to 500 μl at week 14 in MRL/lpr mice, whereas it remained less than 15 μl in MRL/lprCaMKIV−/− mice (FIG. 4A).
To rule out such possibility, we used KN-93, a well-known CaMKIV inhibitor (Tsung et al., J Exp Med. 204: 2913-2923, 2007; Sato et al., Nat Med. 12: 1410-1416, 2006; and Ilario et al., Blood 111: 723-731, 2008), to treat MRL/lpr mice and determine its effect on the expression of lupus nephritis. The agent was administered by intraperitoneal injections at a dose of 0.08 mg/mouse, three times a week. We treated MRL/lpr mice with PBS (control) or KN-93 either every other week from week 8 to week 16 (disease prevention) (FIG. 7A) or weekly from week 12 to week 16 (disease treatment) (FIG. 7B).
In the disease prevention experiment, KN-93 administration was started either before the onset of proteinuria, when the mice were 8 weeks old. These mice received the agent every other week. In the disease treatment experiment, the effectiveness of KN-93 in established disease was evaluated. KN-93 administration was started when mice were 12 weeks old and continued three times a week during 5 weeks. Mice of both experiments were sacrificed at the end of their 16th week of age.

[1] = system: Splenocytes isolated from MRL/lpr mice; experiment: CD86 expression on CD19 positive B cells of MRL/lpr splenocytes (flow cytometry); assay type: cell-based, mouse; conditions: KN-93 (10 μM)
Procedure: Splenocytes were isolated from MRL/lpr mice and stimulated with LPS (1 μg/ml) or PBS for 24 hours. FIGS. 10A and 10C are bar graphs showing the expression of CD86 in LPS-stimulated cells (FIG. 10A) and unstimulated cells (FIG. 10C). A Kruskal-Wallis test was used for statistical analyses. Results are expressed as mean+SD CP=0.01; n=three 24-week-old mice per group). FIGS. 10B and 10D are representative histograms comparing CD86 expression on LPS-stimulated (FIG. 10B) and unstimulated splenocytes (FIG. 10D). Splenocytes were treated with KN-93 (10 μM) (right panel) or PBS (left panel) for 24 hours. Shaded areas represent isotype control staining.
We wished to determine whether CaMKIV deficiency suppresses CD86 expression in all types of antigen presenting cells (APC). Splenocytes were isolated from MRL/lpr and MRL/lprCaMKIV−/− mice and stimulated with LPS (1 μg/ml) or PBS for 24 hours. We stained cells with fluorochrome-conjugated antibodies against the major histocompatibility complex (MHC) class II (eBioscience) (all APCs), CD19 (B cells), CD11c (dendritic cells), and F4/80 (macrophages) (BioLegend). […]
Splenocytes isolated from MRL/lpr mice were stimulated with LPS (1 μg/ml) or PBS for 24 hours in the presence or absence of KN-93. CD19 positive B cells were analyzed for the expression of CD86. […]

Normal human T cells = experiment: IFN-γ production and CD69 expression in normal human T cells; assay type: cell-based
Procedure: (§1) FIG. 15A is a bar graph showing IFN-γ levels in supernatants from human T cells incubated with PBS or CD3/28 and treated with either PBS (white bars) or with KN-93 (black bars). FIG. 15B are histograms comparing CD69 expression in human T cells incubated with PBS (left) or with CD3/28 (right). Data are shown for control (gray), treatment with PBS (dotted line), and treatment with KN-93 (solid line). FIG. 15C is a series of bar graphs showing […] (left), IL-6 (middle), and TNF-α(right) levels in supernatants from macrophages incubated with PBS or LPS and treated with either PBS (white bars) or with KN-93 (black bars). Normal human T cells and macrophages were treated with PBS (control) or KN-93. […] Furthermore, the activity of IL-6 in murine mesangial cells decreases in the absence of CaMKIV. Taken together, inhibition of CaMKIV by KN-93 or absence of CaMKIV (e.g., by genetic deficiency) decreases the expression of various pro-inflammatory cytokines, and inhibitors of CaMKIV could be used to treat disorders associated with one or more of such cytokines (e.g., autoimmune disorders).

macrophages = experiment: Cytokine production in normal human macrophages; assay type: cell-based; conditions: supernatants from macrophages incubated with PBS or LPS, KN-93 vs PBS
Procedure: as §1

primary mesangial cells [2] = experiment: Mesangial cell proliferation (cell cycle analysis, flow cytometry); assay type: cell-based, mouse
Procedure: FIG. 16A is a series of histograms in unstimulated cells (left) and cells stimulated with PDGF (right). FIG. 16B is a series of immunoblots of protein extracts obtained from murine mesangial cells and immunoblotted with anti-CDK2 or anti-cyclin D1 antibodies. After isolation from MRL/MPJ or MRL/lpr mice, these cells were untreated, treated with KN-93, treated with PDGF, or treated with both KN-93 and PDGF. Briefly, four hundred thousand primary mesangial cells were incubated in 2 mL of RPMI 1640 with 10% FBS. Cells were plated in 6-well plates and made quiescent by serum starvation for 24 hours. Then, cells were treated with 20 ng/ml of PDGF-BB (PeproTech, Inc. Rocky Hill, N.J.) for 24 hours. In some experiments, cells were pretreated with KN-93 (20 μM) for 48 hours before the addition of PDGF-BB. For cell cycle analysis, mesangial cells were harvested with trypsin, washed twice with PBS, fixed in cold 95% ethanol, and stored at 4° C. until use. Before flow cytometric analysis, cells were washed with PBS and centrifuged, and the cell pellets were resuspended in a solution of RNAse (0.5 mg/ml) in PBS and incubate at 37° C. for 20 minutes. Then, propidium iodide (PI) (40 μg/ml) was added in PBS for 30 minutes. Stained cells were analyzed with a flow cytometer (model FACS Scan; BD Bioscience, Franklin Lakes, N.J.). […]

primary mesangial cells [3] = experiment: Western blot of CDK2 and cyclin D1 in mesangial cells; assay type: cell-based, mouse; conditions: mesangial cells from MRL/MPJ or MRL/lpr mice, immunoblot
Procedure: FIG. 16A is a series of histograms in unstimulated cells (left) and cells stimulated with PDGF (right). FIG. 16B is a series of immunoblots of protein extracts obtained from murine mesangial cells and immunoblotted with anti-CDK2 or anti-cyclin D1 antibodies. After isolation from MRL/MPJ or MRL/lpr mice, these cells were untreated, treated with KN-93, treated with PDGF, or treated with both KN-93 and PDGF. Briefly, four hundred thousand primary mesangial cells were incubated in 2 mL of RPMI 1640 with 10% FBS. Cells were plated in 6-well plates and made quiescent by serum starvation for 24 hours. Then, cells were treated with 20 ng/ml of PDGF-BB (PeproTech, Inc. Rocky Hill, N.J.) for 24 hours. In some experiments, cells were pretreated with KN-93 (20 μM) for 48 hours before the addition of PDGF-BB. For Western blot analysis, mesangial cells were homogenized in radioimmunoprecipitation assay (RIPA) buffer at 4° C. After centrifugation at 14,000 rpm for 30 min at 4° C., supernatant was collected and stored at −80° C. until use. The following antibodies were used for immunoblot assay: rabbit anti-CDK2, rabbit anti-cyclin D1 (Cell signaling) and rabbit anti-actin (Sigma).

[4] = kidneys of KN-93 treated MRL/lpr mice

Structure (SMILES): COc1ccc(S(=O)(=O)N(CCO)c2ccccc2CN(C)CC=Cc2ccc(Cl)cc2)cc1 [KN-93, N-[2-[[[3-(4-chlorophenyl)-2-propenyl]methylamino]methyl]phenyl]-N-(2-hydroxyethyl)-4-methoxybenzenesulphonamide]
- kidney pathology, determined histopathologically (MRL/lpr mice; 16-week-old MRL/lpr mice, KN-93 vs PBS): less kidney pathology
- protein in the urine (proteinuria) (MRL/lpr mice; MRL/lpr mice, KN-93 i.p. 0.08 mg/mouse three times a week, both schemes (every other week, weeks 8-16; weekly, weeks 12-16), PBS-treated mice 3 g/L): less than 1 g/L
- leukocytes in the urine (pyuria) (MRL/lpr mice; MRL/lpr mice, KN-93 i.p. 0.08 mg/mouse three times a week, both schemes, PBS-treated mice 500 leukocytes/μl): < 125 leukocytes/μl
- glomerular crescents (MRL/lpr mice; [4]): did not have any glomerular crescents
- glomerular damage, interstitial, and perivascular inflammatory cell infiltration (MRL/lpr mice; [4]): limited
- expression of CD86 on stimulated cells ([1]; LPS (1 μg/ml) 24 hours): suppressed
- expression of CD86 in non-LPS stimulated cells ([1]; PBS 24 hours): trend towards lower expression
- expression of CD69 on T cells (Normal human T cells; normal human T cells, KN-93 vs PBS): decreased expression
- production of IFN-γ (Normal human T cells; supernatants from human T cells incubated with PBS or CD3/28, KN-93 vs PBS): decreased production
- production of IL-1β (macrophages): decreased production
- production of IL-6 (macrophages): decreased production
- production of TNF-α (macrophages): decreased production
- mesangial cell proliferation (primary mesangial cells [2]; with PDGF stimulation (20 ng/ml PDGF-BB 24 hours), pretreated with KN-93 (20 μM) 48 hours): suppressed
- mesangial cell proliferation (primary mesangial cells [2]; without PDGF stimulation, KN-93 (20 μM) 48 hours): suppressed
- presence of CD-K2 (primary mesangial cells [3]): decreased
- presence of cyclin D1 (primary mesangial cells [3]): decreased
